Laboratory results taken from the supplement of paper PMC10307832.

What was measured:
Assay in all cases: relative viability (nuclei count vs DMSO), 5 days (fraction); higher = more cells survive
[1] = test system: SW 1573
Method in brief: (§1)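 The day after seeding in 1536-well plates, lung cancer cell lines were treated by pin tool with a single drug, or with a fixed anchor-drug dose together with five library-drug doses (not always all listed) in √10 steps. After 5 days, a combined fix-and-stain solution (final 0.05% Triton X-100, 1% formaldehyde, 1 ug/ml Hoechst) was added. Nuclei counted on 4× images gave relative viability as treated counts over vehicle counts, reported as the median of duplicate plates.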

[2] = test system: NCI-H2405
Method in brief: as §1

[3] = test system: SK-LU-1
Method in brief: as §1

[4] = test system: NCI-H2126
Method in brief: as §1

[5] = test system: NCI-H322M
Method in brief: as §1

[6] = test system: NCI-H1563
Method in brief: as §1

[7] = test system: NCI-H1666
Method in brief: as §1

[8] = test system: EMC-BAC-2
Method in brief: as §1

[9] = test system: NCI-H1975
Method in brief: as §1

[10] = test system: LCLC-103H
Method in brief: as §1

## Nc1ccn([C@@H]2O[C@H](CO)[C@@H](O)[C@@H]2O)c(=O)n1 [Cytarabine] + CC(C)C[C@H](NC(=O)[C@H](Cc1ccccc1)NC(=O)c1cnccn1)B(O)O [Bortezomib] (partner 0.002 µM)
[1]; first compound 0.05 µM
  relative viability: 0.675
[1]; first compound 0.1581 µM
  relative viability: 0.461
[1]; first compound 0.5 µM
  relative viability: 0.159
[2]; first compound 0.005 µM
  relative viability: 0.911
[2]; first compound 0.01581 µM
  relative viability: 0.694
[2]; first compound 0.05 µM
  relative viability: 0.662
[2]; first compound 0.1581 µM
  relative viability: 0.943
[2]; first compound 0.5 µM
  relative viability: 1.03
[3]; first compound 0.005 µM
  relative viability: 0.818
[3]; first compound 0.01581 µM
  relative viability: 0.69
[3]; first compound 0.05 µM
  relative viability: 0.558
[3]; first compound 0.1581 µM
  relative viability: 0.393
[3]; first compound 0.5 µM
  relative viability: 0.296
[4]; first compound 0.005 µM
  relative viability: 1.08
[4]; first compound 0.01581 µM
  relative viability: 1.07
[4]; first compound 0.05 µM
  relative viability: 1.09
[4]; first compound 0.1581 µM
  relative viability: 0.703
[4]; first compound 0.5 µM
  relative viability: 0.699
[5]; first compound 0.005 µM
  relative viability: 0.718
[5]; first compound 0.01581 µM
  relative viability: 1.01
[5]; first compound 0.05 µM
  relative viability: 0.717
[5]; first compound 0.1581 µM
  relative viability: 0.472
[5]; first compound 0.5 µM
  relative viability: 0.404
[6]; first compound 0.005 µM
  relative viability: 0.878
[6]; first compound 0.01581 µM
  relative viability: 0.928
[6]; first compound 0.05 µM
  relative viability: 0.779
[6]; first compound 0.1581 µM
  relative viability: 0.835
[6]; first compound 0.5 µM
  relative viability: 0.592
[7]; first compound 0.005 µM
  relative viability: 0.7
[7]; first compound 0.01581 µM
  relative viability: 0.705
[7]; first compound 0.05 µM
  relative viability: 0.741
[7]; first compound 0.1581 µM
  relative viability: 0.353
[7]; first compound 0.5 µM
  relative viability: 0.318
[8]; first compound 0.005 µM
  relative viability: 1.03
[8]; first compound 0.01581 µM
  relative viability: 1.09
[8]; first compound 0.05 µM
  relative viability: 0.807
[8]; first compound 0.1581 µM
  relative viability: 0.254
[8]; first compound 0.5 µM
  relative viability: 0.229
[9]; first compound 0.005 µM
  relative viability: 0.293
[9]; first compound 0.01581 µM
  relative viability: 0.323
[9]; first compound 0.05 µM
  relative viability: 0.276
[9]; first compound 0.1581 µM
  relative viability: 0.23
[9]; first compound 0.5 µM
  relative viability: 0.213
[10]; first compound 0.005 µM
  relative viability: 0.977
[10]; first compound 0.01581 µM
  relative viability: 1.17
[10]; first compound 0.05 µM
  relative viability: 0.958
[10]; first compound 0.1581 µM
  relative viability: 1.04
[10]; first compound 0.5 µM
  relative viability: 0.966
